Test results from paper PMC10569036.

What was measured:
[1] = shake flask on a mixture of 185; loss from the water phase only; LC-QTOF peak areas; details: room
[2] = shake flask on a mixture of 185; loss from the water phase only; LC-Orbitrap peak areas; details: room

log partition 1-octanol / HPLC water, unbuffered, traces of methanol / DMSO [2] | log partition butyl acetate / HPLC water, unbuffered, traces of methanol / DMSO [2] | log partition chloroform / HPLC water, unbuffered, traces of methanol / DMSO [2] | log partition cyclohexane / HPLC water, unbuffered, traces of methanol / DMSO [2] | log partition dichloromethane / HPLC water, unbuffered, traces of methanol / DMSO [2] | log partition n-hexane / HPLC water, unbuffered, traces of methanol / DMSO [2] | log partition n-octane / HPLC water, unbuffered, traces of methanol / DMSO [2] | log partition n-undecane / HPLC water, unbuffered, traces of methanol / DMSO [2] | log partition oleylalcohol / HPLC water, unbuffered, traces of methanol / DMSO [2] | log partition toluene / HPLC water, unbuffered, traces of methanol / DMSO [2] | SMILES | log partition 1-octanol / HPLC water, unbuffered, traces of methanol / DMSO [1] | log partition butyl acetate / HPLC water, unbuffered, traces of methanol / DMSO [1] | log partition chloroform / HPLC water, unbuffered, traces of methanol / DMSO [1] | log partition cyclohexane / HPLC water, unbuffered, traces of methanol / DMSO [1] | log partition dichloromethane / HPLC water, unbuffered, traces of methanol / DMSO [1] | log partition n-hexane / HPLC water, unbuffered, traces of methanol / DMSO [1] | log partition n-octane / HPLC water, unbuffered, traces of methanol / DMSO [1] | log partition n-undecane / HPLC water, unbuffered, traces of methanol / DMSO [1] | log partition oleylalcohol / HPLC water, unbuffered, traces of methanol / DMSO [1] | log partition toluene / HPLC water, unbuffered, traces of methanol / DMSO [1]
1.225 log10 | 0.9932 log10 | 1.423 log10 | 0.1846 log10 | 0.6345 log10 | -0.08609 log10 | 0.2702 log10 | 0.118 log10 | -0.1437 log10 | 0.6204 log10 | C[C@H](CCC(=O)O)[C@H]1CC[C@H]2[C@@H]3CC[C@@H]4C[C@H](O)CC[C@]4(C)[C@H]3CC[C@]12C | 0.06003 log10 | -0.5367 log10 | 0.5205 log10 | -1.544 log10 | 0.7072 log10 | -1.606 log10 | -1.699 log10 | -0.8435 log10 | -0.1203 log10 | -1.053 log10
1.133 log10 | 4.432 log10 | 2.334 log10 | -0.5049 log10 | 3.927 log10 | -1.029 log10 | -0.5477 log10 | -0.5963 log10 | 1.914 log10 | -0.7173 log10 | CCCCOC(=O)C(C)Oc1ccc(Oc2ccc(C(F)(F)F)cn2)cc1 (centres unmarked) | 1.531 log10 | 1.572 log10 | 2.874 log10 | 2.387 log10 | 2.183 log10 | 2.824 log10 | 2.349 log10 | 2.336 log10 | 1.771 log10 | 2.12 log10
0.493 log10 | 0.5439 log10 | 0.2882 log10 | -0.9006 log10 | 0.4782 log10 | -1.209 log10 | -0.9336 log10 | -1.048 log10 | 0.1818 log10 | -0.4224 log10 | OCCN(CCO)c1ccccc1 | 0.7171 log10 | 0.3605 log10 | -0.02211 log10 | -1.946 log10 | 0.1152 log10 | -1.82 log10 | -2.014 log10 | -1.783 log10 | 0.6347 log10 | -1.086 log10

SMILES | log partition 1-octanol / HPLC water, unbuffered, traces of methanol / DMSO [2] | log partition butyl acetate / HPLC water, unbuffered, traces of methanol / DMSO [2] | log partition chloroform / HPLC water, unbuffered, traces of methanol / DMSO [2] | log partition cyclohexane / HPLC water, unbuffered, traces of methanol / DMSO [2] | log partition dichloromethane / HPLC water, unbuffered, traces of methanol / DMSO [2] | log partition n-hexane / HPLC water, unbuffered, traces of methanol / DMSO [2] | log partition n-octane / HPLC water, unbuffered, traces of methanol / DMSO [2] | log partition n-undecane / HPLC water, unbuffered, traces of methanol / DMSO [2] | log partition oleylalcohol / HPLC water, unbuffered, traces of methanol / DMSO [2] | log partition toluene / HPLC water, unbuffered, traces of methanol / DMSO [2] | log partition 1-octanol / HPLC water, unbuffered, traces of methanol / DMSO [1] | log partition butyl acetate / HPLC water, unbuffered, traces of methanol / DMSO [1] | log partition chloroform / HPLC water, unbuffered, traces of methanol / DMSO [1] | log partition cyclohexane / HPLC water, unbuffered, traces of methanol / DMSO [1] | log partition dichloromethane / HPLC water, unbuffered, traces of methanol / DMSO [1] | log partition n-hexane / HPLC water, unbuffered, traces of methanol / DMSO [1] | log partition n-octane / HPLC water, unbuffered, traces of methanol / DMSO [1] | log partition n-undecane / HPLC water, unbuffered, traces of methanol / DMSO [1] | log partition oleylalcohol / HPLC water, unbuffered, traces of methanol / DMSO [1] | log partition toluene / HPLC water, unbuffered, traces of methanol / DMSO [1]
CC(C)C1(C)N=C(c2nc3ccccc3cc2C(=O)O)NC1=O (centres unmarked) | 0.3193 log10 | -0.573 log10 | -0.8011 log10 | -1.428 log10 | -0.4847 log10 | -1.375 log10 | -1.474 log10 | -1.445 log10 | -0.2597 log10 | -1.419 log10 | -0.1003 log10 | 0.3218 log10 | -1.426 log10 | -1.269 log10 | -0.4187 log10 | -0.9732 log10 | -1.466 log10 | -1.153 log10 | 0.635 log10 | -0.5162 log10
